Key:
Assay in all cases: relative viability (nuclei count vs DMSO), 5 days (fraction); higher = more cells survive
[1] = compound: CC1=NC=CC(=C1)C2=CC=C(C=C2)CC(=O)NC3=CC=C(C=C3)C4=CN=CC=C4 [Wnt-C59] + C[C@@H](Oc1cc(-c2cnn(C3CCNCC3)c2)cnc1N)c1c(Cl)ccc(F)c1Cl [Crizotinib] (partner 1 µM)
Summary of the method: (§1)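 Nuclei were stained with Hoechst during a one-step fixation (final 0.05% Triton X-100, 1% formaldehyde, 1 ug/ml Hoechst) carried out 5 days after dosing, then counted on 4× images. The cells, lung cancer lines in 1536-well plates, had been dosed by pin tool the day after seeding with one drug alone or a fixed anchor-drug dose plus five library-drug doses (not always all listed) in √10 steps. Relative viability is the nuclei count in treated wells divided by that in vehicle wells, and each value is the median of duplicate plates.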

[2] = compound: CC1=NC=CC(=C1)C2=CC=C(C=C2)CC(=O)NC3=CC=C(C=C3)C4=CN=CC=C4 [Wnt-C59] + CCNC(=O)c1noc(-c2cc(C(C)C)c(O)cc2O)c1-c1ccc(CN2CCOCC2)cc1 [Luminespib] (partner 0.01 µM)
Summary of the method: as §1

[3] = compound: CC1=NC=CC(=C1)C2=CC=C(C=C2)CC(=O)NC3=CC=C(C=C3)C4=CN=CC=C4 [Wnt-C59] + Nc1nc2[nH]cc(CCc3ccc(C(=O)N[C@@H](CCC(=O)O)C(=O)O)cc3)c2c(=O)[nH]1 [Pemetrexed] (partner 0.2 µM)
Summary of the method: as §1

[4] = compound: CC1=NC=CC(=C1)C2=CC=C(C=C2)CC(=O)NC3=CC=C(C=C3)C4=CN=CC=C4 [Wnt-C59] + CS(=O)(=O)N1CCN(Cc2cc3nc(-c4cccc5[nH]ncc45)nc(N4CCOCC4)c3s2)CC1 [Pictilisib] (partner 1 µM)
Summary of the method: as §1

Row | Cell Line | relative viability ([1]; first compound 0.001 µM) | relative viability ([1]; first compound 0.01 µM) | relative viability ([1]; first compound 0.03162 µM) | relative viability ([1]; first compound 0.1 µM) | relative viability ([2]; first compound 0.001 µM) | relative viability ([2]; first compound 0.01 µM) | relative viability ([2]; first compound 0.03162 µM) | relative viability ([2]; first compound 0.1 µM) | relative viability ([3]; first compound 0.001 µM) | relative viability ([3]; first compound 0.01 µM) | relative viability ([3]; first compound 0.03162 µM) | relative viability ([3]; first compound 0.1 µM) | relative viability ([4]; first compound 0.001 µM) | relative viability ([4]; first compound 0.01 µM) | relative viability ([4]; first compound 0.03162 µM) | relative viability ([4]; first compound 0.1 µM)
1 | LCLC-103H | 1.08 | 0.977 | 1 | 1.02 | 0.845 | 0.919 | 0.977 | 0.973 | 0.452 | 0.467 | 0.482 | 0.505 | 0.663 | 0.62 | 0.634 | 0.651
2 | BEN | 0.897 | 0.84 | 1.02 | 0.923 | 0.331 | 0.423 | 0.457 | 0.598 | 0.707 | 0.738 | 0.754 | 0.846 | 0.524 | 0.667 | 0.613 | 0.596
3 | COR-L 105 | 0.879 | 0.808 | 0.853 | 0.76 | 0.913 | 0.609 | 0.823 | 0.645 | 1.13 | 0.887 | 1.14 | 1.15 | 0.368 | 0.315 | 0.413 | 0.446
4 | LC-2-ad | 0.45 | 0.442 | 0.553 | 0.279 | 1.13 | 0.97 | 1.06 | 0.975 | 0.282 | 0.297 | 0.271 | 0.283 | 0.435 | 0.43 | 0.469 | 0.472
5 | NCI-H358 | 0.608 | 0.525 | 0.436 | 0.625 | 0.315 | 0.341 | 0.291 | 0.475 | 0.167 | 0.176 | 0.207 | 0.172 | 0.311 | 0.345 | 0.314 | 0.354
6 | HARA | 1.04 | 0.642 | 1.15 | 1.06 | 0.662 | 0.557 | 0.721 | 0.65 | 0.206 | 0.206 | 0.26 | 0.237 | 0.32 | 0.523 | 0.402 | 0.6
7 | CAL-12T | 0.699 | 0.654 | 0.89 | 0.555 | 0.397 | 0.307 | 0.592 | 0.571 | 1.33 | 1.18 | 1.29 | 1.09 | 0.259 | – | 0.436 | 0.511
8 | NCI-H1975 | 0.98 | 0.936 | 1.04 | 0.948 | 0.347 | 0.28 | 0.217 | 0.143 | 0.321 | 0.307 | 0.288 | 0.311 | 0.282 | 0.294 | 0.326 | 0.282
9 | PC-14 | 0.999 | 0.857 | 0.818 | 0.848 | 0.178 | 0.166 | 0.144 | 0.16 | 0.131 | 0.138 | 0.109 | 0.143 | 0.761 | 0.665 | 0.715 | 0.553
10 | NCI-H1944 | 1.04 | 0.971 | 1.18 | 1.07 | 0.802 | 0.758 | 0.769 | 0.652 | 0.615 | 0.594 | 0.639 | 0.602 | 0.372 | 0.312 | 0.322 | 0.336
11 | A-427 | 0.982 | 0.798 | 0.962 | 0.905 | 0.886 | 0.943 | 0.715 | 0.933 | 0.936 | 1.04 | 0.994 | 1.1 | 0.756 | 0.554 | 0.717 | 0.799
12 | H3255 | 0.86 | 0.959 | 0.942 | 0.751 | 0.94 | 0.884 | 1.04 | 0.919 | 0.598 | 0.553 | 0.583 | 0.554 | 0.565 | 0.359 | 0.431 | 0.49
13 | NCI-H23 | 0.521 | 0.463 | 0.537 | 0.599 | 0.206 | 0.217 | 0.227 | 0.217 | 0.589 | 0.595 | 0.59 | 0.703 | 0.426 | 0.454 | 0.467 | 0.423
14 | NCI-H2087 | 0.737 | 0.884 | 0.792 | 0.778 | 0.146 | 0.183 | 0.187 | 0.216 | 0.629 | 0.72 | 0.697 | 0.709 | 0.94 | 0.816 | 0.819 | 0.907
15 | ABC-1 | 1.03 | 1.21 | 1.11 | 0.868 | 1.18 | 0.807 | 0.736 | 0.598 | – | – | – | – | 0.685 | 0.817 | 0.76 | 0.6
16 | A549 | 0.802 | 0.676 | 0.752 | 0.676 | – | – | – | – | – | – | – | – | 0.534 | 0.541 | 0.408 | 0.484
17 | HCC-78 | 0.343 | 0.284 | 0.303 | 0.339 | – | – | – | – | 0.913 | 0.883 | 0.907 | 0.934 | 0.22 | 0.185 | 0.226 | 0.257
18 | NCI-H1299 | 1.02 | 0.562 | 0.952 | 0.953 | – | – | – | – | – | – | – | – | 0.739 | 0.476 | 0.756 | 0.793
19 | NCI-H2342 | – | – | – | – | 0.692 | 0.658 | 0.806 | 0.809 | 0.758 | 0.773 | 0.892 | 0.777 | – | – | – | –
20 | SW 900 | – | – | – | – | 0.159 | 0.179 | 0.172 | 0.197 | 0.505 | 0.469 | 0.483 | 0.478 | – | – | – | –
21 | NCI-H1703 | 0.988 | 0.735 | 0.585 | 0.64 | – | – | – | – | – | – | – | – | 0.22 | 0.218 | 0.324 | 0.273
22 | NCI-H1395 | – | – | – | – | 0.702 | 0.589 | 0.762 | 0.773 | 0.968 | 0.861 | 0.94 | 0.885 | 0.656 | 0.608 | 0.655 | 0.664
23 | NCI-H1623 | – | – | – | – | 0.594 | 0.413 | 0.544 | 0.481 | – | – | – | – | – | – | – | –
24 | EBC-1 | 0.191 | 0.188 | 0.204 | 0.224 | – | – | – | – | – | – | – | – | 0.444 | 0.349 | 0.299 | 0.418

From the supplement of paper PMC10307832
